The source of these data is patent EP0567562B1, “METHODS FOR DETECTING GLUCAGON ANTAGONISTS” (ZYMOGENETICS, INC., priority 1991, dated 1996).

The experiment relates to glucagon receptor. Description: Glucagon antagonist screening assay: adenylate cyclase reaction with rat liver membranes, cAMP measured by Scintillation Proximity Assay. The class given is biochemical.

Source text: Young female Sprague-Dawley rats were used for the preparation of liver membranes using the method essentially described by Neville (ibid.) and modified by Pohl et al. (ibid). Ten to 15 rats yielding 60-100 grams of liver were processed per batch. After the rats were euthanized by cervical dislocation, their livers were surgically removed and transferred, as quickly as possible, to an iced beaker. Scissors were used to mince the tissue into pieces approximately 3-6 mm in size. Any connective tissue that was present was removed.
The minced tissue was suspended in ice cold 1 mM sodium bicarbonate at a concentration of approximately 300 g/I. This suspension was processed in batches in a tissue homogenizer with eight strokes of the loose pestle. […]
After centrifugation, as much of the supernatant as possible was carefully decanted and discarded, and the pellets were gently resuspended in the remaining supernatant with three strokes of the loose pestle in a clean tissue homogenizer. […] After thorough mixing, the sucrose concentration was measured with a refractometer and adjusted to between 43.9% and 44 1% sucrose (corresponding to a refractive index between 1.4076 and 1.4080) with either 69% sucrose or water. […]

In the case of glucagon [ZB210], for the setting “yeast culture broth, no exogenous glucagon”, the “stimulation of adenylate cyclase activity by culture broth in the absence of exogenous glucagon” value is recorded as “stimulation of adenylate cyclase activity even in the absence of exogenous glucagon”.
Take `CSCC[C@H](NC(=O)[C@H](CC(C)C)NC(=O)[C@H](Cc1c[nH]c2ccccc12)NC(=O)[C@H](CCC(N)=O)NC(=O)[C@@H](NC(=O)[C@H](Cc1ccccc1)NC(=O)[C@H](CC(=O)O)NC(=O)[C@H](CCC(N)=O)NC(=O)[C@H](C)NC(=O)[C@H](CCCNC(=N)N)NC(=O)[C@H](CCCNC(=N)N)NC(=O)[C@H](CO)NC(=O)[C@H](CC(=O)O)NC(=O)[C@H](CC(C)C)NC(=O)[C@H](Cc1ccc(O)cc1)NC(=O)[C@H](CCCCN)NC(=O)[C@H](CO)NC(=O)[C@H](Cc1ccc(O)cc1)NC(=O)[C@H](CC(=O)O)NC(=O)[C@H](CO)NC(=O)[C@@H](NC(=O)[C@H](Cc1ccccc1)NC(=O)[C@@H](NC(=O)CNC(=O)[C@H](CCC(N)=O)NC(=O)[C@@H](N)CO)[C@@H](C)O)[C@@H](C)O)C(C)C)C(=O)N[C@@H](CC(N)=O)C(=O)N[C@H](C(=O)O)[C@@H](C)O` [des-His^1-glucagon]: the “antagonist activity: CAMP response of rat liver membranes to three concentrations of glucagon” value (culture broth of the yeast strain, compared with control strains making des-His^1-glucagon and des-His^1-[Glu^9]glucagon) was “weak antagonist”.
